From patent US8129532B2, “Amino(oligo)thiophene dyes, preparation thereof, and optical methods of use” (The University of Connecticut, priority 2007, dated 2012)

How the values were obtained:
[1] = One-photon absorption and emission spectra in multilamellar lipid vesicles, water and ethanol; format: physicochemical; conditions: for Absorbance MLV / Emission MLV: multilamellar lipid vesicles
Source text: […] The column indicating relative signal change for one-photon fluorescence also lists the excitation light source used and the lower bounds of the long-pass emission detected.
Absorption and emission spectra were obtained for a series of dyes with different acceptors: pyridinium (PY-1261), quinolinium (PY-212), and acridinium (PY-2240).

[2] = tested on: layer V pyramidal neurons; assay: Voltage-sensitive dye imaging of action potentials in intracellularly stained pyramidal neurons in brain slices; format: cell-based, Sprague Dawley rats; conditions: for AP-associated optical signal, single example (base line-to-peak): FIG. 11, basal dendrite
Source text: Sprague Dawley rats (P21-42) were anesthetized with isoflurane, decapitated, and the brains were removed with the head immersed in ice-cold, artificial cerebrospinal fluid (ACSF), according to an animal protocol approved by the Center for Laboratory Animal Care, University of Connecticut. Brain slices (300 μm) were cut from frontal lobes in the coronal plane. ACSF contained (in mM) 125 NaCl, 26 NaHCO3, 10 glucose, 2.3 KCl, 1.26 KH2PO4, 2 CaCl2 and 1 MgSO4, pH 7.4. Whole-cell recordings were made from visually identified layer V pyramidal neurons on the medial part of the slice. Intracellular solution contained (in mM) 135 K-gluconate, 2 MgCl2, 3 Na2-ATP, 10 Na2-phosphocreatine, 0.3 Na2-GTP and 10 Hepes (pH 7.3, adjusted with KOH). Electrical signals were amplified with Multiclamp 700A and digitized with two input boards: (1) Digidata Series 1322A (Axon Instruments) at 5 kHz, and (2) Neuroplex (RedShirtImaging) at 2.7 kHz sampling rate. Only cells with a membrane potential more hyperpolarized than −50 mV, and action potential amplitudes exceeding 80 mV (measured from the base line) were included in this study. All experiments were performed on layer 5 cortical pyramidal cells at 34° C.
Blue dyes were stored in ethanol stock solution at −20° C. On the day of the recording blue dyes were dissolved in standard K-gluconate based intracellular solution. A loading pipette was filled with two varieties of the same intracellular solution; one with and one without dye. Dye-free solution was occupying the very tip of the pipette, while the back of the pipette lumen was microloaded with dye-rich solution. The purpose of dye-free solution in the tip of the patch pipette was to prevent dye-leak during the maneuver through brain slice tissue. VSD styryl dyes are lipophilic and bind indiscriminately and irreversibly to all membranes around the neuron of interest. Even a small amount of dye that leaks out of the pipette during the formation of the gigaohm seal, can generate strong fluorescent background. Fluorescent light emanating from surrounding tissue has a devastating effect on dendritic optical signals. Elimination of the background fluorescence is critical for dendritic voltage imaging. How much dye-free solution one should put in the tip depends on time period between the submersion of the patch pipette into the recording chamber and formation of the gigaohm seal. The faster one can perform this maneuver the less dye-free solution she needs to achieve optimal staining.
Blue VSD were injected at room temperature for 25-60 minutes. The filling pipette was carefully pulled out (outside-out patch) and brain slices were left to incubate for 20-120 minutes at room temperature. Just before optical recordings the cells were re-patched with dye-free pipette at the physiological temperature (34° C.).
Voltage-sensitive dye imaging was performed on a Zeiss Axioskope 2FS microscope equipped with NeuroCCD camera (RedShirtImaging). We used Zeiss 40× objective IR-Achroplan 0.80 W. The size of the square visual field captured by NeuroCCD camera was 384×384 um. In the place of the arc lamp (normally used for epi-illumination), we inserted a 200 μm fiber optic guide with a collimator. Laser beam was focused on the other side of the fiber optic guide using a microscope objective-like lens. This arrangement produced a motionless spot of laser light (˜25 μm in diameter) at the object plane. An illuminated section of the brain slice, projected onto the NeuroCCD camera, covered approximately 25 pixels when used with 40× objective lens. At this magnification, one pixel sampled a 4.8×4.8 square in the object plane. A region of interest (ROI) was brought into the laser spot using X-Y microscope platform. The laser beam was interrupted by an electro-programmable shutter (Uniblitz®). Attention was made to limit the exposure time during the recording and positioning of the neuron.

[3] = tested on: layer V pyramidal neurons; assay: Toxicity / photodynamic damage: AP half-width during optical recording
Source text: S. Antic, G. Major, D. Zecevic, “Fast optical recordings of membrane potential changes from dendrites of pyramidal neurons”, Journal of Neurophysiology, 82, 1615-1621 (1999). Accumulation of reactive oxygen species (free radicals), which interact with and damage neuronal plasmalemma, is the most likely mechanism. J. B. Feix, B. Kalyanaraman, “Production of singlet oxygen-derived hydroxyl radical adducts during merocyanine-540-mediated photosensitization: analysis by ESR-spin trapping and HPLC with electrochemical detection”, Archives of Biochemistry & Biophysics, volume 291, pages 43-51 (1991). High intensity illumination during optical recording sessions excites large number of membrane bound dye molecules. Since styryl dyes have tendency to penetrate deep into the lipid bilayers (E. Fluhler, V. G. Burnham, L. M. Loew, “Spectra, membrane binding, and potentiometric responses of new charge shift probes”, Biochemistry, 24, 5749-5755 (1985)), free radicals are produced literally inside the neuronal membrane. […] S. D. Antic, “Action potentials in basal and oblique dendrites of rat neocortical pyramidal neurons”, Journal of Physiology 550, 35-50 (2003). […] Since dye loading was always done at room temperature (21° C.) and re-patching at 34° C., we could not compare AP shape and size before and after dye loading. Therefore, in order to check the extent of dye toxicity we designed a group of experiments in which neurons were injected and incubated at 34° C. During the dye injection (loading phase), in regular time intervals (3-5 min) direct current pulses was used to slowly charge the membrane and trigger an AP (FIG. 14A). Identical current pulse was then applied at the end of dye loading phase, just before the electrode pull-out (FIG. 14B) and after the 50-90 min incubation period (FIG. 14C, re-patch). […] To avoid AP jitter in optical recordings we used shorter and stronger current pulses (FIG. 14D, E, F, insets). However, from time to time we returned to AP-testing current injection protocol (FIG. 14D, E), while keeping the count on the number of cumulative high-intensity light exposures (# sweeps). […] Additional experimental details can be found in Ping Yan, Aifang Xie, Meide Wei, and Leslie M. Loew, “Amino(oligo)thiophene-Based Environmentally Sensitive Biomembrane Chromophores”, Journal of Organic Chemistry, published on web Jul. 30, 2008.

| Molecule | Absorbance ethanol [1] | Emission ethanol [1] | Absorbance MLV [1] | Emission MLV [1] | Absorbance water [1] | polarity of optical signal at 532 nm excitation [2] | polarity of optical signal at 658 nm excitation [2] | optical signal amplitude of blue dye relative to red dye JPW-3028 ([2]; FIG. 11) | AP-associated optical signal, single example (base line-to-peak) [2] | dF/F at 633 nm ([2]; backpropagating AP, basal dendrites 80-150 μm from soma, laser spot 633 nm, %) | dF/F at 658 nm ([2]; backpropagating AP, basal dendrites 80-150 μm from soma, laser spot 658 nm, %) | voltage sensitivity compared with red dye ([2]; basal dendrites 80-150 μm from soma) | S/N ratio at 633 nm ([2]; laser spot 633 nm) | S/N ratio at 658 nm ([2]; laser spot 658 nm) | slope of linear fit, AP half-width versus cumulative sweeps ([3]; Sprague-Dawley, rat) | sweeps recorded per session on average ([3]; Sprague-Dawley, rat) | time since beginning of dye injection without AP broadening ([3]; Sprague-Dawley, rat) | S/N ratio at 532 nm ([2]; laser spot 532 nm) | slope of linear fit, AP half-width versus cumulative sweeps ([3]; FIG. 15A, 15C) | sweeps recorded before AP half-width grew by more than 15% from control ([3]; n=12) |
| --- | --- | --- | --- | --- | --- | --- | --- | --- | --- | --- | --- | --- | --- | --- | --- | --- | --- | --- | --- | --- |
| CCN(CC)c1ccc2cc(/C=C/C=C/c3cc[n+](CCC[N+](C)(C)C)c4ccccc34)ccc2c1.[Br-].[Br-] [JPW-4090, Di-2-ANBDQPQ] | 584 nm | 812 nm | 526 nm | 702 nm | 490 nm | positive signals | positive signals | approximately 3 times | 17 % ΔF/F | 12.70 ± 3.59% | 11.03 ± 2.24% | better sensitivity than red dye JPW-3028 | 5.48 ± 2.01 | 6.93±1.88 | 0.0003 | 114±67 sweeps | ≥ 192 min | – | – | – |
| Di-1-ANEPEQ [JPW-3028, reference compound] | 511 nm | 718 nm | 457 nm | 670 nm | 440 nm | – | – | – | 5 % ΔF/F | – | – | – | – | – | – | – | – | {at 532 nm = 5.95 ± 2.16} | 0.0027 | 86±28 sweeps |
